Paper PMC11532403 (Signal Transduction and Targeted Therapy, 2024)
Several values for one entry are separate records, joined by “and”; a condition that tells them apart may be missing. Equal entries are not always repeated.

Tested on: RET-altered solid tumors
Test: Phase 1 trial: anti-tumor efficacy (RECIST 1.1)
Format: in vivo, human
Experimental: Radiologic tumor assessments were conducted by computed tomography (CT) or magnetic resonance imaging (MRI) of brain, chest, abdomen, and pelvis at baseline, 4 weeks for the first tumor assessment, then every 8 weeks (± 7 days) for 1 year, and every 12 weeks (± 7 days) thereafter. MTC patients were longitudinally monitored for serum calcitonin and carcinoembryonic antigen (CEA) levels.

[1] = All patients, 160 mg BID (n = 95)
[2] = All patients, 200 mg BID (n = 10)
[3] = All patients, all doses (n = 116)
[4] = Previously treated, 160 mg BID (n = 58)
[5] = Previously treated, 200 mg BID (n = 8)
[6] = Previously treated, all doses (n = 76)
[7] = RP2D 160 mg BID, MTC, all (n = 23)
[8] = RP2D 160 mg BID, NSCLC, all (n = 64)
[9] = RP2D 160 mg BID, PTC, all (n = 7)
[10] = RP2D, MTC, previously treated (n = 15)
[11] = RP2D, MTC, treatment-naïve (n = 8)
[12] = RP2D, NSCLC, previously treated (n = 36)
[13] = RP2D, NSCLC, treatment-naïve (n = 28)
[14] = RP2D, PTC, previously treated (n = 6)

## COc1ccc(CN2C3CC2CN(c2ccc(-c4cc(N5CC(C)(O)C5)cn5ncc(C#N)c45)cn2)C3)cn1 [SY-5007, 6-(3-hydroxy-3-methylazetidin-1-yl)-4-(6-(6-((6-methoxypyridin-3-yl)methyl)-3,6-diazabicyclo[3.1.1]heptan-3-yl)pyridin-3-yl)pyrazolo[1,5-a]pyridine-3-carbonitrile]
111/116
  Patients with target tumor shrinkage: 95.7%
All patients, 20 mg QD to 120 mg BID cohorts
  Progressive disease: 0 (0.0) n (%)
All patients, 20 mg QD to 120 mg BID cohorts, 20 mg once daily
  DCR (95% CI): 100.0 (2.5–100.0) %
All patients, 20 mg QD to 120 mg BID cohorts, 20 mg twice daily
  Median TTR (95% CI): 6.73 (NE-NE) months
All patients, 20 mg QD to 120 mg BID cohorts, 40 mg twice daily
  DCR (95% CI): 100.0 (29.2–100.0) %
All patients, 20 mg QD to 120 mg BID cohorts, 120 mg twice daily
  Median TTR (95% CI): 8.37 (1.18-NE) months
[1]
  DCR (95% CI): 94.7 (88.1–98.3) %
  Median DoR (95% CI): 13.0 (12.8-NE) months
  Median PFS (95% CI): 15.4 (13.8-NE) months
  Median TTR (95% CI): 2.79 (2.75–4.63) months
  ORR (95% CI): 58.9 (48.4–68.9) %
  Partial response: 56 (58.9) n (%)
  Progressive disease: 5 (5.3) n (%)
  Stable disease: 34 (35.8) n (%)
[2]
  DCR (95% CI): 100.0 (69.2–100.0) %
  Median TTR (95% CI): 1.14 (0.91-NE) months
  ORR (95% CI): 60.0 (26.2–87.8) %
  Partial response: 6 (60.0) n (%)
  Progressive disease: 0 (0.0) n (%)
  Stable disease: 4 (40.0) n (%)
[3]
  DCR (95% CI): 95.7 (90.2–98.6) %
  Median DoR (95% CI): 19.9 months and 19.9 (12.8–NE) months
  Median PFS (95% CI): 21.1 months and 21.1 (13.8–NE) months
  Median TTR (95% CI): 2.82 (2.75–4.66) months
  ORR (95% CI): 57.8 (48.2–66.9) %
  Partial response: 67 (57.8) n (%)
  Progressive disease: 5 (4.3) n (%)
  Stable disease: 44 (37.9) n (%)
MTC at RP2D
  Estimated 12-month PFS rate: 85.2%
NSCLC at 160 mg BID
  Estimated 6-month PFS rate: 89.6%
  Estimated 12-month PFS rate: 67.5%
PTC at RP2D
  Estimated 12-month PFS rate: 100.0%
Previously treated, 20 mg QD (n = 1)
  Median PFS (95% CI): 4.83 (NE-NE) months
Previously treated, 20 mg QD to 120 mg BID cohorts
  Progressive disease: 0 (0.0) n (%)
Previously treated, 20 mg QD to 120 mg BID cohorts, 20 mg once daily
  DCR (95% CI): 100.0 (2.5–100.0) %
Previously treated, 20 mg QD to 120 mg BID cohorts, 20 mg twice daily
  Median TTR (95% CI): 6.73 (NE-NE) months
Previously treated, 20 mg QD to 120 mg BID cohorts, 40 mg twice daily
  DCR (95% CI): 100.0 (15.8–100.0) %
Previously treated, 20 mg QD to 120 mg BID cohorts, 80 mg twice daily
  DCR (95% CI): 100.0 (29.2–100.0) %
Previously treated, 20 mg QD to 120 mg BID cohorts, 120 mg twice daily
  Median TTR (95% CI): 8.37 (1.18-NE) months
[4]
  DCR (95% CI): 94.8 (85.6–98.9) %
  Median DoR (95% CI): 13.0 (9.23-NE) months
  Median PFS (95% CI): 15.4 (13.8-NE) months
  Median TTR (95% CI): 4.56 (2.75-NE) months
  ORR (95% CI): 51.7 (38.2–65.0) %
  Partial response: 30 (51.7) n (%)
  Progressive disease: 3 (5.2) n (%)
  Stable disease: 25 (43.1) n (%)
[5]
  DCR (95% CI): 100.0 (63.1–100.0) %
  Median TTR (95% CI): 3.15 (0.91-NE) months
  ORR (95% CI): 50.0 (15.7–84.3) %
  Partial response: 4 (50.0) n (%)
  Progressive disease: 0 (0.0) n (%)
  Stable disease: 4 (50.0) n (%)
[6]
  DCR (95% CI): 96.1 (88.9–99.2) %
  Median DoR (95% CI): 19.9 (12.8-NE) months
  Median TTR (95% CI): 4.63 (2.75-NE) months
  ORR (95% CI): 51.3 (39.6–63.0) %
  Partial response: 39 (51.3) n (%)
  Progressive disease: 3 (3.9) n (%)
  Stable disease: 34 (44.7) n (%)
RET fusion-positive NSCLC at 160 mg BID
  Patients with progression or death: 26.6%
[7]
  DCR (95% CI): 91.3 (72.0-98.9) %
  Median TTR (95% CI): 4.66 (2.75-NE) months
  ORR (95% CI): 52.2 (30.6-73.2) %
  Partial response: 12 (52.2) n (%)
  Progressive disease: 2 (8.7) n (%)
  Stable disease: 9 (39.1) n (%)
[8]
  DCR (95% CI): 96.9 (89.2-99.6) %
  Median DoR (95% CI): 13.0 months and 13.0 (9.26-NE) months
  Median PFS (95% CI): 15.4 months and 15.4 (10.1-NE) months
  Median TTR (95% CI): 2.75 (1.01-2.89) months
  ORR (95% CI): 64.1 (51.1-75.7) %
  Partial response: 41 (64.1) n (%)
  Progressive disease: 2 (3.1) n (%)
  Stable disease: 21 (32.8) n (%)
[9]
  DCR (95% CI): 100.0 (59.0-100.0) %
  ORR (95% CI): 42.9 (9.9-81.6) %
  Partial response: 3 (42.9) n (%)
  Progressive disease: 0 (0.0) n (%)
  Stable disease: 4 (57.1) n (%)
[10]
  DCR (95% CI): 100.0 (78.2-100.0) %
  ORR (95% CI): 40.0 (16.3-67.7) %
  Partial response: 6 (40.0) n (%)
  Progressive disease: 0 (0.0) n (%)
  Stable disease: 9 (60.0) n (%)
[11]
  DCR (95% CI): 75.0 (34.9-96.8) %
  Median TTR (95% CI): 2.75 (0.85-NE) months
  ORR (95% CI): 75.0 (34.9-96.8) %
  Partial response: 6 (75.0) n (%)
  Progressive disease: 2 (25.0) n (%)
  Stable disease: 0 (0.0) n (%)
[12]
  DCR (95% CI): 94.4 (81.3-99.3) %
  Median DoR (95% CI): 13.0 (9.20-NE) months
  Median PFS (95% CI): 13.8 (10.1-NE) months
  Median TTR (95% CI): 2.75 (0.98-NE) months
  ORR (95% CI): 58.3 (40.8-74.5) %
  Partial response: 21 (58.3) n (%)
  Progressive disease: 2 (5.6) n (%)
  Stable disease: 13 (36.1) n (%)
[13]
  DCR (95% CI): 100.0 (87.7-100.0) %
  Median DoR (95% CI): 14.5 (9.26-NE) months
  Median PFS (95% CI): 15.5 (9.23-NE) months
  Median TTR (95% CI): 1.11 (0.91-3.15) months
  ORR (95% CI): 71.4 (51.3-86.8) %
  Partial response: 20 (71.4) n (%)
  Progressive disease: 0 (0.0) n (%)
  Stable disease: 8 (28.6) n (%)
[14]
  DCR (95% CI): 100.0 (54.1-100.0) %
  ORR (95% CI): 50.0 (11.8-88.2) %
  Partial response: 3 (50.0) n (%)
  Progressive disease: 0 (0.0) n (%)
  Stable disease: 3 (50.0) n (%)
RP2D, PTC, treatment-naïve (n = 1)
  DCR (95% CI): 100.0 (2.5-100.0) %
